The values below come from ChEMBL document CHEMBL1201862, “PubChem BioAssay data set” (2004).

Assay in all cases: NCI-60 cell line screen, 48 h
Test [1] deals with HCT-15.
Test [2] deals with 786-0.
For test [3], the system named is SNB-19.
The subject of test [4] is HCT-116.
The subject of test [5] is ACHN.
In test [6] the test system is KM12.
For test [7], the system named is NCI-H460.
Test [8] relates to TK-10.
Test [9] deals with LOX IMVI.
Test [10] has as its system A498.
Test [11] deals with K562.
Test [12] relates to UACC-62.
Test [13] relates to Malme-3M.
The subject of test [14] is SK-MEL-2.
The subject of test [15] is OVCAR-3.
Test [16] concerns UO-31.
Test [17] concerns MCF7.
The subject of test [18] is RXF 393.
The subject of test [19] is MDA-MB-231.
Test [20] has as its system SR.

SMILES strings stand for the structures.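 1) Cells in 96-well plates. 2) Compound, 48 h, 5 concentrations. 3) Linear interpolation between surrounding doses. 4) Unreached endpoint = highest concentration. Abbreviation: GI50, concentration required for 50% inhibition of growth.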 Activity calls are given as the source filed them. Rule as the data show it: active = GI50 up to about 1.1 µM and inactive = higher.

As for `O=C1CN(/N=C/c2ccc(-c3ccc(F)cc3)o2)C(=O)N1`, the GI50 in [1] was 39 µM; in test [2], > 100 µM (inactive); in test [3], 83.9 µM (inactive); in test [4] it was 50.8 µM (inactive); in [5], > 100 µM (inactive); in test [6], 33.1 µM (inactive). The GI50 is 45.2 µM (inactive) in [7]; 69.2 µM (inactive) in [8]; 26.6 µM (inactive) in test [9]; 25.2 µM (inactive) in [10]; 35 µM (inactive) in test [11]; 45.5 µM (inactive) in test [12]. The GI50 in [13] was 47.5 µM (inactive); in [14], 34.6 µM (inactive); in test [15], > 100 µM (inactive); in test [16], 75.2 µM (inactive); in test [17], 49.1 µM (inactive); in test [18] it was > 100 µM (inactive). The GI50 in [19] is > 100 µM (inactive); in test [20], 24 µM (inactive).
With `Cc1cc(Cc2cc(C)c(NC(=O)C(=O)C3CCC4=C(SC5C=CC=CC5N4)C3=O)c(C(C)C)c2)cc(C(C)C)c1NC(=O)C(=O)C1CCC2=C(SC3C=CC=CC3N2)C1=O` (stereo not drawn), the GI50 is 34.9 µM in test [1]; > 100 µM (inactive) in [2]; 47 µM (inactive) in test [4]; 62.4 µM (inactive) in [5]; 43.3 µM (inactive) in test [6]; 53.1 µM (inactive) in test [7]. For the same molecule, the GI50 was > 100 µM (inactive) in [8]; 96.6 µM (inactive) in [9]; > 100 µM (inactive) in test [10]; 55.7 µM (inactive) in test [11]; 53.1 µM (inactive) in test [12]; 45.5 µM (inactive) in [14]. Moreover, the GI50 was 35 µM (inactive) in test [15]; 41.3 µM (inactive) in [16]; 62.5 µM (inactive) in [17]; 44 µM (inactive) in [18]; 95.9 µM (inactive) in [19]; 60.8 µM (inactive) in test [20].
In the case of `Cn1c(=O)c2nc3nnc(C#N)c(N)n3c2n(C)c1=O`, the GI50 in test [1] is over 100 µM; in [2] it was > 100 µM (inactive); in [4] it was > 100 µM (inactive); in test [5] it was 44.4 µM (inactive); in [6], > 100 µM (inactive); in test [7], > 100 µM (inactive). The GI50 in [8] was > 100 µM (inactive); in test [10], 51.4 µM (inactive); in test [11], > 100 µM (inactive); in test [12] it was > 100 µM (inactive); in test [13], 25.2 µM (inactive); in test [14], > 100 µM (inactive). Also, the GI50 in [15] was > 100 µM (inactive); in test [16], 50.6 µM (inactive); in test [17] it was > 100 µM (inactive); in [18], 79.4 µM (inactive); in [19] it was > 100 µM (inactive); in test [20], > 100 µM (inactive).
In the case of `CC(C)N(C(=O)c1ccc(NCc2cc(O)ccc2O)cc1)C(C)C`, the GI50 was 16.8 µM in test [1]; 13 µM (inactive) in [2]; 19.2 µM (inactive) in test [3]; 15.5 µM (inactive) in test [4]; 13.8 µM (inactive) in test [5]; 18.2 µM (inactive) in [7]. Also, the GI50 in [8] is 15.6 µM (inactive); in test [9], 14.7 µM (inactive); in test [10] it was 18 µM (inactive); in [11], 20.4 µM (inactive); in test [12], 14.2 µM (inactive); in test [13], 13.9 µM (inactive). Moreover, the GI50 was 22.3 µM (inactive) in test [14]; 11.6 µM (inactive) in test [15]; 9.44 µM (inactive) in test [16]; 23.9 µM (inactive) in test [17]; 13.1 µM (inactive) in test [18]; 14.3 µM (inactive) in [19]. Besides, in test [20], the GI50 was > 100 µM (inactive).
Regarding `CN(C)C(=S)Oc1ccc2ccc(=O)oc2c1`, the GI50 in test [1] is over 100 µM; in [2] it was > 100 µM (inactive); in [3], > 100 µM (inactive); in [4], > 100 µM (inactive); in [5], > 100 µM (inactive); in test [6], > 100 µM (inactive). In addition, the GI50 in test [7], in [8], in test [9], in test [10], in test [12] and in test [13] was > 100 µM (inactive) in each case. The GI50 in [14], in test [15], in [16], in test [17], in test [18] and in test [19] was > 100 µM (inactive) in each case. In [20], the GI50 was > 100 µM (inactive).
In the case of `CCOC(=O)N1N=C(/C(C)=N/OC)C(C)[S+]1[O-]` (stereo not drawn), the GI50 was over 100 µM in [1]; > 100 µM (inactive) in test [2]; > 100 µM (inactive) in test [3]; > 100 µM (inactive) in test [4]; > 100 µM (inactive) in test [5]; > 100 µM (inactive) in test [6]. Besides, the GI50 is 57.7 µM (inactive) in test [7]; > 100 µM (inactive) in [8]; > 100 µM (inactive) in [10]; > 100 µM (inactive) in test [11]; > 100 µM (inactive) in [12]; > 100 µM (inactive) in test [13]. For the same molecule, the GI50 in test [14], in test [15], in test [16], in [17], in [18] and in [19] was > 100 µM (inactive) each time. The GI50 in [20] was > 100 µM (inactive).
With `Cc1cn(C2OC(CO[Si](C)(C)C(C)(C)C)/C(=C\C#N)C2O[Si](C)(C)C(C)(C)C)c(=O)[nH]c1=O` (stereo not drawn), the GI50 is 14.4 µM in test [1]; 58.1 µM (inactive) in test [2]; > 100 µM (inactive) in test [3]; 22.9 µM (inactive) in [4]; 83 µM (inactive) in test [5]; 27.1 µM (inactive) in test [6]. Further, the GI50 in test [7] is 8.83 µM (inactive); in [8] it was > 100 µM (inactive); in test [9] it was 19.5 µM (inactive); in [10], > 100 µM (inactive); in test [11], 1.93 µM (inactive); in [12] it was 44.4 µM (inactive). Further, the GI50 in [14] was 8.73 µM (inactive); in test [15], 7.73 µM (inactive); in test [16], > 100 µM (inactive); in [17], 1.89 µM (inactive); in test [18], 7.53 µM (inactive); in [19], > 100 µM (inactive). Further, the GI50 in [20] is > 100 µM (inactive).
Regarding `CC(=O)N1c2ccccc2C2=NN(C)C(=N)SC21` (stereo not drawn), the GI50 in test [1] is over 100 µM; in [2] it was > 100 µM (inactive); in test [3], > 100 µM (inactive); in test [4], > 100 µM (inactive); in test [5] it was > 100 µM (inactive); in test [6], > 100 µM (inactive). Besides, the GI50 in test [7] is > 100 µM (inactive); in test [8] it was > 100 µM (inactive); in [9], > 100 µM (inactive); in test [10], 66.7 µM (inactive); in test [11], > 100 µM (inactive); in test [13] it was 68.4 µM (inactive). In addition, the GI50 in test [14] is > 100 µM (inactive); in [15] it was 13.8 µM (inactive); in test [16], 28 µM (inactive); in [17] it was > 100 µM (inactive); in test [19] it was > 100 µM (inactive); in test [20], > 100 µM (inactive).
For `Cc1ccc(C2SC(=N)Nc3c2c(C)nn3C(=O)c2ccccc2O)cc1` (stereo not drawn), the GI50 in [1] is over 10 µM; in [2], > 10 µM (inactive); in test [3] it was > 10 µM (inactive); in test [4] it was > 10 µM (inactive); in [5], 6.03 µM (inactive); in test [6], > 10 µM (inactive). Further, the GI50 is 7.57 µM (inactive) in test [7]; > 10 µM (inactive) in test [8]; > 10 µM (inactive) in [9]; 3.59 µM (inactive) in test [10]; 4.35 µM (inactive) in test [11]; 1.41 µM (inactive) in test [12]. Besides, the GI50 in test [13] is > 10 µM (inactive); in test [14], 6.31 µM (inactive); in [15], > 10 µM (inactive); in test [16], 6.87 µM (inactive); in test [17], > 10 µM (inactive); in test [18] it was > 10 µM (inactive). In addition, the GI50 in [19] and in test [20] was > 10 µM (inactive) each time.
Consider `O=S(=O)(O)c1cccc2cccc(/N=N/c3c(O)ccc4ccccc34)c12`, for which the GI50 in test [1] is over 100 µM; in test [2], > 100 µM (inactive); in test [3], > 100 µM (inactive); in test [4], > 100 µM (inactive); in test [5] it was > 100 µM (inactive); in [6] it was > 100 µM (inactive). Moreover, the GI50 in test [7], in [8], in test [10], in [11], in test [12] and in test [13] was > 100 µM (inactive) throughout. Moreover, the GI50 in test [14], in test [15], in [16], in [17], in test [18] and in test [19] was > 100 µM (inactive) each time. Further, the GI50 in [20] is > 100 µM (inactive).
For `Cc1cnc2nc(-c3cccc4ccccc34)cc(O)c2c1`, the GI50 was 0.000454 µM in test [1]; 0.000791 µM (active) in test [2]; 0.00332 µM (active) in [3]; 0.000652 µM (active) in test [4]; 0.00119 µM (active) in test [5]; 0.000551 µM (active) in test [6]. Besides, the GI50 in test [7] is 0.00303 µM (active); in test [9], 0.000819 µM (active); in test [10], 0.000352 µM (active); in [11], 0.000462 µM (active); in test [12], 0.000518 µM (active); in test [13], 0.000289 µM (active). The GI50 in test [14] is 0.000335 µM (active); in test [15], 0.000281 µM (active); in test [16] it was 0.00242 µM (active); in test [17], 0.00121 µM (active); in [18] it was 0.000346 µM (active); in test [19] it was 0.00493 µM (active). Moreover, the GI50 in test [20] was 0.000352 µM (active).
